Paper PMC4780864, “Family-wide Structural Analysis of Human Numb-Associated Protein Kinases” (Structure(London, England:1993), 2016)

Tests used:
[1] = target: T1, BIKE (Homo sapiens, UniProt Q9NSY1, K320A/K321A); experiment: co-crystal structure ([…] Å); ITC; thermal shift; assay type: binding
T1 construct: gene BMP2K; BIKE38–345 (kinase domain)

[2] = target: T2, AAK1 (Homo sapiens, UniProt Q2M2I8); experiment: biochemical; design: kinase domain; Thermal shift assay (DSF, SYPRO Orange), 2 uM kinase domain, mean delta Tm of triplicates versus DMSO; details: read-out: AAK1
T2 sequence (Q2M2I8 27-365 limits assumed): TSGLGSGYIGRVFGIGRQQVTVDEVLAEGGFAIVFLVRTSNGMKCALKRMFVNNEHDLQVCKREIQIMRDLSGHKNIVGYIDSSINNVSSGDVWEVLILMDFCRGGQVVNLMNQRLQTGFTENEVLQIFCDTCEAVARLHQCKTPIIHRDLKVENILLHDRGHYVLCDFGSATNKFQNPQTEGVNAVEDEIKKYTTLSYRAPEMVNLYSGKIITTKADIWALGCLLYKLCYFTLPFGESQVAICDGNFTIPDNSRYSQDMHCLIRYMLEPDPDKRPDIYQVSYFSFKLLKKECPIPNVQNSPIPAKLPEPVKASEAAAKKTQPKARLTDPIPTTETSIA
Protocol: (§1) All measurements were performed in triplicate and mean values were reported for all compounds (Table S1). […] However, NAKs are often omitted from selectivity panels, including commercial screens.

[3] = target: T2, AAK1; experiment: ITC; thermal shift
[4] = target: T3, BIKE (Homo sapiens, UniProt Q9NSY1); experiment: biochemical; design: Thermal shift assay (DSF, SYPRO Orange), 2 uM kinase domain, mean delta Tm of triplicates versus DMSO; details: read-out: BIKE
T3 construct: gene BMP2K; catalytic domain-containing construct
T3 sequence (Q9NSY1 whole entry, the tested form may be a part): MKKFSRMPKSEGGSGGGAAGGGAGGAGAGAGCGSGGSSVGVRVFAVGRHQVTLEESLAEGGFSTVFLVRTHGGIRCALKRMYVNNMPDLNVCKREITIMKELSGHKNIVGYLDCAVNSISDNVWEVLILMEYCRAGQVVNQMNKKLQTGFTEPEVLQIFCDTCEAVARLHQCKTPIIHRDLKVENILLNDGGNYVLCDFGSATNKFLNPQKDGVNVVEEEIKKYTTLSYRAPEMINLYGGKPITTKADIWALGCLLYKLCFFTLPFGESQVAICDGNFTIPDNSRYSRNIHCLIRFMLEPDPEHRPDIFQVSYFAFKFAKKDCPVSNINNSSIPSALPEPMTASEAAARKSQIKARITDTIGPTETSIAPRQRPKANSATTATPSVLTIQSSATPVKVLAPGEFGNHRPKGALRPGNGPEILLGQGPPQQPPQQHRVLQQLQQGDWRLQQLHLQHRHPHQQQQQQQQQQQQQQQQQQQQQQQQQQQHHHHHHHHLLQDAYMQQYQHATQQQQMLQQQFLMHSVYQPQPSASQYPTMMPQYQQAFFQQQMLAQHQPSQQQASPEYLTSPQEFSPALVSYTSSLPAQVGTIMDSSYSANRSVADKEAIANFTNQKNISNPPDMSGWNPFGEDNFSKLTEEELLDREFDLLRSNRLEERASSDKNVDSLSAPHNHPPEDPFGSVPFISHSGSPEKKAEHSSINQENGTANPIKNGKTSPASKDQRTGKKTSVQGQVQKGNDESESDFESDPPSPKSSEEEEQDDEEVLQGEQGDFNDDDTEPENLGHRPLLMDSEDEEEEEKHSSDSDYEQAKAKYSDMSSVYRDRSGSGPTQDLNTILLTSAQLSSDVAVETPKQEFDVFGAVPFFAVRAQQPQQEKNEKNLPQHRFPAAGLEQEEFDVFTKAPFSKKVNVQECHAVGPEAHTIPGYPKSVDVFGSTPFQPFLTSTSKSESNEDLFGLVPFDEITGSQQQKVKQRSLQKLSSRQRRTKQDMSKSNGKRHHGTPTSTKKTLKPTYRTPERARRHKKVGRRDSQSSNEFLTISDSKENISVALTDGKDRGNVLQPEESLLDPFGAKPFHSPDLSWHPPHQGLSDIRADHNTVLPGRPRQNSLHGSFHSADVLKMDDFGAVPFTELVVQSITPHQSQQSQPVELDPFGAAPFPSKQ
Protocol: as §1

[5] = target: T4, MPSK1 (Homo sapiens, UniProt O75716); experiment: biochemical; design: Thermal shift assay (DSF, SYPRO Orange), 2 uM kinase domain, mean delta Tm of triplicates versus DMSO; details: read-out: MPSK1
T4 construct: gene STK16; catalytic domain-containing construct
T4 sequence (O75716 whole entry, the tested form may be a part): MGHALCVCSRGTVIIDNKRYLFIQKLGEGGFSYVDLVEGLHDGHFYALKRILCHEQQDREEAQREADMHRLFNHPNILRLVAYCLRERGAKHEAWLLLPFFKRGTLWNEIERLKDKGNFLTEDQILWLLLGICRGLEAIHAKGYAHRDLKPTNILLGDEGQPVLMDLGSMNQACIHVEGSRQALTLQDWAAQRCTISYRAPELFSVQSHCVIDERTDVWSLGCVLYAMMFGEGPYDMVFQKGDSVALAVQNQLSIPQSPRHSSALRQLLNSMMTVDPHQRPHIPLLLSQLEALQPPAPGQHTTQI
Protocol: as §1

[6] = target: T5, GAK (Homo sapiens, UniProt O14976); experiment: biochemical; design: Thermal shift assay (DSF, SYPRO Orange), 2 uM kinase domain, mean delta Tm of triplicates versus DMSO; details: read-out: GAK
T5 construct: catalytic domain-containing construct
T5 sequence (O14976 1-1311): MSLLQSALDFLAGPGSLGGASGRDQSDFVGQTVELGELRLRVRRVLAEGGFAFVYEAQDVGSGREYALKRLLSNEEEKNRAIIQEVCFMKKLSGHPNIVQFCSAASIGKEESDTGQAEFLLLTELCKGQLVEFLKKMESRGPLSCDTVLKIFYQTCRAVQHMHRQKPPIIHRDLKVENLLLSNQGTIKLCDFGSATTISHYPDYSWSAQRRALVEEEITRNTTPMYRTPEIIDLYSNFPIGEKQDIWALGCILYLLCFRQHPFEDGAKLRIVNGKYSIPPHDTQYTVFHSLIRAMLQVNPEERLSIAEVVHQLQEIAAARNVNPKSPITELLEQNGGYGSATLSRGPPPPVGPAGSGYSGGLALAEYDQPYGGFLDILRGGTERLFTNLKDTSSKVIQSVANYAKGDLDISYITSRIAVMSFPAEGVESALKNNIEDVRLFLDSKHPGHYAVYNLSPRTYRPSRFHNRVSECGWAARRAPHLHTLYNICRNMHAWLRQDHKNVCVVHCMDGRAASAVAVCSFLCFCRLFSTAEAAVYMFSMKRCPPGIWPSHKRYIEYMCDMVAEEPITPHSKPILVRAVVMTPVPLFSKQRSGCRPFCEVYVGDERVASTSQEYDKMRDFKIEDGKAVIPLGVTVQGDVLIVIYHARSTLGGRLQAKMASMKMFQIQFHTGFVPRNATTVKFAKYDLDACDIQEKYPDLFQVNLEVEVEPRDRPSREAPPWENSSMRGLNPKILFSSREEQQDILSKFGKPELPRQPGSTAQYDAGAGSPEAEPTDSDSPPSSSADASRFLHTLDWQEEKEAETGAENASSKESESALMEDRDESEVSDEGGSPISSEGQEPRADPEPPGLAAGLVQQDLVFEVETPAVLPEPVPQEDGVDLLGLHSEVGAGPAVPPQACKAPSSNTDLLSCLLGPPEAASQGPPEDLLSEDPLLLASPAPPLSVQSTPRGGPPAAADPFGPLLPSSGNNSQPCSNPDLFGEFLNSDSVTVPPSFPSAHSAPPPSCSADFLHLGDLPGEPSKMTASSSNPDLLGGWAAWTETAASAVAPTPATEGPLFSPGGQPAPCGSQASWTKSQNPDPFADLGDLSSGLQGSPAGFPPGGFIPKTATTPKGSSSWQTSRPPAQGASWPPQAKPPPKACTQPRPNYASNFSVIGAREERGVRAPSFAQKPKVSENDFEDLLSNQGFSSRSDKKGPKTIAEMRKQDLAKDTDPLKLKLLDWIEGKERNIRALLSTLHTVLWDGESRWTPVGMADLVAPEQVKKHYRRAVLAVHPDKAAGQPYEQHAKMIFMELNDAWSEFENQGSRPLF
Protocol: as §1

T1 sequence (Q9NSY1 38-345 K320A/K321A): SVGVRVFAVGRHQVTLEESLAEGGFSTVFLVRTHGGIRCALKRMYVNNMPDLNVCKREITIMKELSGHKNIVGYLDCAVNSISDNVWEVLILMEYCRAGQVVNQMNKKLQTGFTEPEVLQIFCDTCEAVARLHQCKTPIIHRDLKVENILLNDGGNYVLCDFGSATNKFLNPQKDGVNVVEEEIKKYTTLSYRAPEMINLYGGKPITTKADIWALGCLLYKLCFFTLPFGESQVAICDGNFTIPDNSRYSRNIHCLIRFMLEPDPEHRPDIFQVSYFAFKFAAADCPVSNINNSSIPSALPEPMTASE

ΔTm at 12.5 µM [2] [°C] | ΔTm at 12.5 µM [4] [°C] | ΔTm at 12.5 µM [5] [°C] | ΔTm at 12.5 µM [6] [°C] | SMILES | Kd [1] [nM] | Kd [3] [nM]
0.23 | 0.5 | 1 | -1.13 | CCc1cnn2c(NCc3ccc[n+]([O-])c3)cc(N3CCCC[C@H]3CCO)nc12 [Dinaciclib] |  | 
4.66 | 12 | 4.1 | 3.73 | CC1(COc2ccc3c(c2)ncn3-c2ccc3cccc(N4CCC(N)CC4)c3n2)COC1 [Crenolanib] |  | 
6.74 | 10.2 | 3.24 | 3.81 | CN1CCC(CNc2ccc3ncc(-c4cccc(OC(F)(F)F)c4)n3n2)CC1 [SGI-1776] |  | 
5.19 | 9.4 | 1.86 | 1.03 | CN(C)C[C@@H]1CCn2cc(c3ccccc32)C2=C(C(=O)NC2=O)c2cn(c3ccccc23)CCO1 [Ruboxistaurin] |  | 
2.94 | 5.02 | 7.72 | 0.733 | CC(=O)c1c(C)c2cnc(Nc3ccc(N4CCNCC4)cn3)nc2n(C2CCCC2)c1=O [Palbociclib] |  | 
3.06 | 3.48 | 4.59 | 2.74 | CC[C@@H]1C(=O)N(C)c2cnc(Nc3ccc(C(=O)N[C@H]4CC[C@H](N5CCN(CC6CC6)CC5)CC4)cc3OC)nc2N1C(C)C [Volasertib] |  | 
0.303 | 0.423 | 0.513 | 0.0567 | Clc1ccc(Nc2nnc(Cc3ccncc3)c3ccccc23)cc1 [Vatalanib] |  | 

SMILES | ΔTm at 12.5 µM [2] [°C] | ΔTm at 12.5 µM [4] [°C] | ΔTm at 12.5 µM [5] [°C] | ΔTm at 12.5 µM [6] [°C] | Kd [1] [nM] | Kd [3] [nM]
NC(=O)Nc1cc(-c2cccc(F)c2)sc1C(=O)N[C@H]1CCCNC1 [AZD7762] | 10.8 | 12.6 | 3.46 | 5.39 | 33.1 | 36.5
